This passage reports viability, T/C and IC50 results from PubChem BioAssay AID2060501 (Molecular Pharmacology Branch, DTP, NCI, 2025).

The structures appear in SMILES notation. “And” between values parts separate entries of the source, which are not always exact repeats. Identical values can stand only once.

This experiment has as its system 282377-053-R-J1-PDC complex spheroids, viability. Briefly: Anticancer human tumor 282377-053-R-J1-PDC patient-derived colon adenocarcinoma cell line growth inhibition [GQUAD]. As to conditions: for viability, T/C: stronger effect = lower value. The text has this: DNA G-quadruplex Stabilizer Agents in Combinations in Complex Spheroids
A high-throughput screen of multi-cell type tumor spheroids was designed to identify active combinations of DNA G-quadruplex stabilizer agents and targeted small molecules. Complex spheroids include a stromal component modeled by human endothelial cells (HUVEC) and fibroblasts modeled by human mesenchymal stem cells (MSCs). The concentration ranges selected for each drug and investigational agent were based upon clinically achievable concentrations if the clinical Cmax of the agent was known.
Compounds. The drugs and investigational agents: pidnarulex (CX-5461; NSC782164), APTO-253 (NSC789042), BRACO-19 (NSC847499), peposertib (NSC802822), ceralasertib (NSC780249), elimusertib (NSC800525), camonsertib (NSC841442), AZD-1390 (NSC803789), olaparib (NSC753686), talazoparib (NSC767125), ART-558 (NSC835418), sotorasib (NSC818433), MRTX-1133 (NSC836407), SN-38 (NSC673596), topotecan (NSC609699), etoposide (NSC141540), doxorubicin (NSC123127), gemcitabine (NSC613327), 5-fluorouracil (NSC19893), paclitaxel (NSC125973), vemurafenib (NSC761431), panobinostat (NSC761190), R-306465 (JNJ-16241199; NSC773264), adavosertib (NSC754352), TP-3654 (NSC805149), carboplatin (NSC241240), KSQ-4279 (NSC840948), and staurosporine (NSC755774) were obtained from the National Cancer Institute (NCI) Developmental Therapeutics Program Chemical Repository (34). The FDA-approved anticancer drug set is available from the NCI Developmental Therapeutics Program. […] The stock solutions were prepared in dimethyl sulfoxide (DMSO, Sigma-Aldrich, St. Louis, MO, cat. D2650) at 800-fold the tested concentration and stored at -70 degrees C prior to their use. All drugs and investigational agents were tested over a range starting from a high concentration at or near the clinical Cmax and decreasing in half-log increments. If the clinical Cmax for an agent had not been determined, the highest concentration tested was 10 microM.
2.3 Cell Culture. All cells were maintained in an incubator at 37 degrees C and 5% CO2 with 95% humidity. The PDC lines were cultured according to standard operating procedures established by the NCI PDMR. All PDCs were thawed and cultured in Matrigel-coated flasks prepared with a working solution of 1X Ham's F-12 nutrient mix, without supplementation (Invitrogen, cat. 11765054), 100 U/mL penicillin-streptomycin (Invitrogen, cat. 15140122), and 2.5% Matrigel (Corning Inc., cat. 354248) for the first three passages. The 857933-349-R-J2-PDC line was cultured in 6C/Colon 1B media, which includes advanced DMEM/F-12 (Thermo Fisher Scientific, cat. 12634028), 10 mM HEPES (Thermo Fisher Scientific, cat. 15630080), 1X GlutaMAX supplement (Thermo Fisher Scientific, cat. 35050061), 0.1 mg/mL primocin (InvivoGen, cat. ant-pm-2), 10% defined fetal bovine serum, heat inactivated (HyClone Laboratories Inc., cat. SH30070.03HI), 50% L-WRN conditioned media (ATCC, cat. CRL-3276), 1.25 mM N-Acetyl-L-cysteine (Sigma-Aldrich, cat. A9165), 10 mM nicotinamide (Sigma-Aldrich, cat. N0636), 1X B-27 supplement (Thermo Fisher Scientific, cat. 17504044), 1X N-2 supplement (Thermo Fisher Scientific, cat. 17502048), 10 microM Y-27632 dihydrochloride (Tocris Bioscience, cat. 1254), and 50 ng/mL human EGF recombinant protein (Thermo Fisher Scientific, cat. PHG0311). The 485176-168-R4-J1-PDC line was cultured in Panc media, which includes all 6C/Colon 1B media components plus 100 ng/mL human FGF-10 (Thermo Fisher Scientific, cat. 100-26), 500 nM SB-431542 (Selleckchem, cat. S1067), and gastrin (Tocris, cat. 3006).
[…]
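Note: spheroids exposed to compounds for 7 days before readout.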
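Throughout, for viability, T/C: percent of vehicle DMSO control viability with 100% = untreated-like growth.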

In the case of `C=CCn1c(=O)c2cnc(Nc3ccc(N4CCN(C)CC4)cc3)nc2n1-c1cccc(C(C)(C)O)n1`, the viability, T/C by setting is: (compound 0.0316 µM) 88.3% and 90.1% and 98.2%; (compound 0.1 µM) 65.9% and 82.6% and 109%; (compound 0.316 µM) 65.6% and 85.4% and 103%; (compound 1 µM) 66.5% and 75% and 72.4%; (compound 3.16 µM) 72.8% and 29.1% and 28%; (compound 10 µM) 17.2% and 15.7% and 17.4%. Moreover, under “curve of compound”, the half-inhibitory concentration (IC50) is 5.01 µM and 1.87 µM and 1.78 µM.

Regarding `CN(C)c1ccc(Nc2c3ccc(NC(=O)CCN4CCCC4)cc3nc3cc(NC(=O)CCN4CCCC4)ccc23)cc1`, the viability, T/C runs as follows: (compound 0.1 µM) 96.9% [middle of 12 runs]; (compound 3.16 µM) 99.2% [middle of 12 runs]. The IC50 (compound alone, run of 04/22/2024) was above 10 µM.

Consider `COc1ncnc(C2CC2)c1-c1ncc2cnn(Cc3ccc(-c4nc(C(F)(F)F)cn4C(C)C)cc3)c2n1`, for which the viability, T/C by setting is: (compound 0.0316 µM) 101% and 109% and 104%; (compound 0.1 µM) 102% and 106% and 78.5%; (compound 0.316 µM) 102% and 82.9% and 81.3%; (compound 1 µM) 109% and 91.4% and 78.3%; (compound 3.16 µM) 106% and 86.4% and 75.8%. Also, under “curve of compound”, the IC50 was > 10 µM and 5.29 µM.

Turning to `Cc1cnc(CNC(=O)c2c(=O)c3ccc(N4CCCN(C)CC4)nc3n3c2sc2ccccc23)cn1`, the viability, T/C runs as follows: (compound 1 µM) 64.5% [middle of 12 runs]; (compound 3.16 µM) 57.2% [middle of 12 runs]; (compound 10 µM) 55.2% [middle of 12 runs].

Broadly, the viability, T/C is the result in the treated group divided by that in the control group, in per cent. The term IC50 denotes the concentration needed to halve the response being measured.
